The text below walks through data of ChEMBL document CHEMBL3112412, “Synthesis and receptor binding studies of some new arylcarboxamide derivatives as sigma-1 ligands” (Bioorg Med Chem Lett, 2014).

The structures appear in SMILES notation.

A short description of experiment [1]: Selectivity ratio of Ki for sigma 2 receptor in guinea pig brain to Ki for sigma 1 receptor in rat liver homogenate. The format is tissue-based.
Experiment [2] deals with Sigma non-opioid intracellular receptor 1 (Rattus norvegicus, UniProt Q9R0C9). In words: Displacement of [3H](+)-pentazocine from sigma 1 receptor in rat liver homogenate after 120 mins by liquid scintillation counting. The format is tissue-based.
Sigma non-opioid intracellular receptor 1, sequence (Q9R0C9 whole entry): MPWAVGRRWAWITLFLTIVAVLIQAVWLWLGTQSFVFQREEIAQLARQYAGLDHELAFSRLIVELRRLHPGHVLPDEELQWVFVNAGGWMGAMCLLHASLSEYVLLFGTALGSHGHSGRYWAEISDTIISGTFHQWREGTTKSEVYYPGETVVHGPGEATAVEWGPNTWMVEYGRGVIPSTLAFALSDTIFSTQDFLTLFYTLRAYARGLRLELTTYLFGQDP
Experiment [3] in a line: Displacement of [3H]-DTG from sigma 2 receptor in guinea pig brain after 120 mins by liquid scintillation counting. Further details: species or system Cavia porcellus.

Turning to `CCN(CC1CCN(Cc2ccccc2)CC1)C(=O)c1ccco1`, in experiment [1], the Ratio Ki was greater than 140. The Ki in experiment [2] was 0.0212 µM; in experiment [3], greater than 3 µM.

For `CCN(CC1CCN(Cc2ccc(Cl)cc2)CC1)C(=O)c1ccccc1`, the Ki in experiment [2] worked out at 0.155 µM.

In the case of `CCN(CC1CCN(Cc2ccc(Cl)cc2)CC1)C(=O)c1ccc2ccccc2c1`, affinity in experiment [2] was put at a Ki of 0.225 µM.

In turn, `CCN(CC1CCN(Cc2ccccc2)CC1)C(=O)c1ccccc1` had a Ki in experiment [2] of 0.0668 µM.

As to `CCN(CC1CCN(Cc2ccccc2)CC1)C(=O)c1ccc(C)cc1`, the Ratio Ki in experiment [1] is greater than 3. Moreover, the figures for the inhibitory constant (Ki) in experiment [2] and in experiment [3] were 0.16 µM and greater than 0.5 µM, respectively.

As to `CCN(CC1CCN(Cc2ccc(Cl)cc2)CC1)C(=O)c1cccc2ccccc12`, the Ratio Ki in experiment [1] was greater than 4. Also, the inhibition constant Ki was 0.215 µM in experiment [2] and greater than 1 µM in experiment [3].

With `CCN(CC1CCN(Cc2ccccc2)CC1)C(=O)c1ccc(OC)cc1`, the affinity in experiment [2], expressed as Ki, was 0.192 µM.

Consider `CCN(CC1CCN(Cc2ccc(Cl)cc2)CC1)C(=O)c1ccc(-c2ccccc2)cc1`, for which, in experiment [2], affinity was put at a Ki of 0.373 µM.

As to `CCN(CC1CCN(Cc2ccc(Cl)cc2)CC1)C(=O)c1ccc(Cl)cc1`, the Ratio Ki in experiment [1] is greater than 11. Also, the Ki in experiment [2] was 0.091 µM; in experiment [3], greater than 1 µM.

On to `CCN(CC1CCN(Cc2ccccc2)CC1)C(=O)c1ccc2ccccc2c1`, for which the Ratio Ki in experiment [1] stood at 1.36. Moreover, the Ki in experiment [2] is 0.198 µM; in experiment [3] it was 0.27 µM.

Regarding `CCN(CC1CCN(Cc2ccc(Cl)cc2)CC1)C(=O)c1ccc(OC)cc1`, in experiment [1], the Ratio Ki is 1.3. Further, the values for the inhibition constant (Ki) in experiment [2] and in experiment [3] were 0.217 µM and 0.283 µM, respectively.

For the molecule `CCN(CC1CCN(Cc2ccccc2)CC1)C(=O)c1cccc2ccccc12`, the Ratio Ki in experiment [1] is greater than 6. Besides, the results for the inhibitory constant (Ki) in experiment [2] and in experiment [3] were 0.161 µM and greater than 1 µM, respectively.

Consider `CCN(CC1CCN(Cc2ccccc2)CC1)C(=O)c1ccc(Cl)cc1`, for which the Ratio Ki in experiment [1] was greater than 17. In addition, the Ki in experiment [2] is 0.0591 µM; in experiment [3] it was greater than 1 µM.

As to `CCN(CC1CCN(Cc2ccc(Cl)cc2)CC1)C(=O)c1ccco1`, in experiment [1], the Ratio Ki was greater than 40. Also, the Ki in experiment [2] was 0.0136 µM; in experiment [3], greater than 0.5 µM.

For the molecule `CCN(CC1CCN(Cc2ccc(Cl)cc2)CC1)C(=O)c1ccc(C)cc1`, the Ratio Ki in experiment [1] was greater than 3. Moreover, the inhibitory constant (Ki) in experiment [2] is 0.14 µM; in experiment [3] it was greater than 0.5 µM.

Turning to `CCN(CC1CCN(Cc2ccccc2)CC1)C(=O)c1ccc(-c2ccccc2)cc1`, the Ratio Ki in experiment [1] is greater than 1. Moreover, the values for the Ki in experiment [2] and in experiment [3] were 0.301 µM and greater than 0.5 µM, respectively.
